Measured values taken from patent publication US8507431B2, “Methods for accelerating wound healing by administration of a preadipocyte modulator or an adipocyte modulator” (HealOr Ltd., priority 2003, dated 2013).
“Also recorded” adds a separate entry of the source.

Columns and labels:
primary keratinocytes = experiment: Keratinocytes migration (wound scratch) assay in vitro; type: cell-based, murine; conditions: for keratinocyte migration in scratch assay vs control and insulin: treated daily, 24 and 48 hrs
Method: Primary keratinocytes were isolated from newborn skin as described in reference 18. Keratinocytes were cultured in Eagle's Minimal Essential Medium (EMEM) containing 8% Chelex (Chelex-100, BioRad) treated fetal bovine serum. To maintain a proliferative basal cell phenotype, the final Ca^2+ concentration was adjusted to 0.05 mM. Experiments were performed five to seven days after plating.
Primary mouse keratinocytes were untreated or treated with, PPARγ antagonist GW9662 (μM) or PPARγ agonist troglitazone (μM). Wound Scratch Assay was performed 24 hours following treatment, and representative fields were photographed immediately after the wounding (Day 0) and 48 hours later (Day 2). The average of wound closure represented as percentage in comparison to the initial width of the wound scratch (% of wound closure).
The effect of inhibiting or enhancing the activity of peroxisome proliferators-activated receptor gamma (PPARγ) on keratinocytes migration was evaluated utilizing the in vitro migration assay. Thus, primary keratinocytes were isolated and plated on 5 ml non-coated dishes until confluence in low Ca^2+ medium, and an artificial crossover scratch was formed in each dish with a 200 μm tip. Cells were either non-treated (control) or treated daily with PPARγ modulators.
In order to test the effect of different adipokines on keratinocyte migration to close the wound gap, an in vitro scratch assay was used. Thus, primary keratinocytes were isolated and plated on 5 ml non-coated dishes until confluence in low Ca^2+ medium, and an artificial crossover scratch was formed in each dish with a 200 μm tip. Cells were either non-treated (control) or treated daily with insulin (0.1 unit/ml), hIL-4 (2 ng/ml), hIL-6 (0.2 ng/ml), leptin (4 μg/ml) or apelin (0.02 μg/ml or 0.2 μg/ml).
(§1) Primary keratinocytes/fibroblasts were isolated and plated on 5 ml non-coated dishes until confluence in low Ca^2+ medium, and an artificial cross-over scratch was formed in each dish with a 200 μm tip. Then, cells were either non-treated or treated with visfatin (0.1 μg/ml or 0.0.1 μg/ml) or insulin (0.1 unit/ml) for up to 48 hrs.

[1] = tested on: Full thickness wounds on the back of C57BL mice; experiment: Wound healing assay, full thickness incision wounds in mice; type: in vivo; conditions: for epidermal migration vs PBS control (K14 staining) / wound contraction vs PBS control / dermal contraction (both dermal wound sides in a single field, H&E): topical daily for 6 days; for epidermal migration vs PBS control (K14 staining) / wound contraction vs PBS control / dermal contraction (both dermal wound sides in a single field, H&E) / wound area compared with the buffer control (morphological analysis): GW9662 2 μM, adipsin 1 μM; for wound contraction vs PBS control / wound area compared with the buffer control (morphological analysis): troglitazone 100 μM; for dermal contraction (both dermal wound sides in a single field, H&E): control negative; for wound area compared with the buffer control (morphological analysis): topical daily for six days, insulin 10 nM, troglitazone 100 μM + insulin 10 nM
Method: […] […] Wound biopsies were sampled, processed and analyzed morphologically and/or histochemically and/or immunohistochemically for various wound healing parameters, i.e., wound contraction, adipocytes migration and differentiation, epidermal migration, and epidermal closure.
The wound area was measured and compared to untreated control wounds; and wound contraction was calculated as the percent reduction of the wound area.
Wound biopsies were fixed in 4% paraformaldehyde then dehydrated in increasing concentrations of ethanol (50-100%). The dehydrated preparations were immersed first in xylene, then paraffin and xylene 1:1 solution, then in pure melted paraffin (60° C.). The paraffin blocks were then sectioned by a microtome and the sections were mounted on Super Frost^+™ slides.
Paraffin embedded wound-section slides were incubated at 60° C. for 60 minutes and were de-parafinated by washing the slides twice with toluene (100%) for 10 minutes, then rehydrated in decreasing concentration of ethanol (100-50%) for 5 minutes each. The slides were stained with hematoxylin (ready to use solution) for 10 minutes, rinsed with water, stained with eosin (0.5% in DDW) for 5 minutes, and then washed with 70% ethanol by 2 quick immersions. Thereafter, the slides were dehydrated by washing once with 95% ethanol for 2 minutes, twice with 100% ethanol for 5 minutes, and twice with xylene (100%) for 10 minutes, then mounted with entellan (MERCK Darmstadt Germany).
Paraffin embedded wound-section slides were de-parafinated as described for H&E staining above and incubated in blocking solution (5% BSA and 0.5% Tween 20™ in PBS) for 1 hour. The slides were then incubated with either anti-keratin 1 (1:500) or anti-keratin 14 (1:1000) antibody in blocking solution (5% BSA and 0.5% Tween 20™ in PBS) at 4° C. overnight. Thereafter, the slides were washed five times with washing buffer (5% Tween 20™ in PBS for K14 and 0.5% Tween 20™ in PBS for K1) followed by incubation with biotinilated goat anti-rabbit antibody (ZYMED Laboratories Inc.) suspended (1:200) in blocking solution (5% BSA and 0.5% Tween 20™ in PBS) for 1 hour at room temperature. The slides were then washed three times with washing buffer (5% Tween 20™ in PBS) followed by incubation with an enzyme streptavidin conjugate in blocking solution (1:300) for 1 hour at room temperature. Thereafter, the slides were washed twice with washing buffer (5% Tween 20™ in PBS) for 5 minutes, once with PBS for 5 minutes and once with TRIS buffer (0.05 M in PBS) for 5 minutes, followed by incubation in DAB reagent for color development. The reaction was terminated by immersing the slides in double distilled water followed by counterstaining with eosin (ICN, 0.5% in DDW). The slides were then washed with 70% ethanol by 2 quick immersions; dehydrated by washing once again with 95% ethanol for 2 minutes, twice with 100% ethanol for 5 minutes, and twice with xylene (100%) for 10 minutes; and mounted with entellan (MERCK Darmstadt Germany).
The effect of inhibiting or enhancing the activity of PPARγ using PPARγ antogonist and agonist, respectively, on wound healing was also evaluated in vivo. […]
The effect of adipsin (complementing Factor D, which is secreted from adipocytes) on wound healing was evaluated in vivo. […] The mice were sacrificed 6 days after wounding and the wounds were then analyzed. […] In addition, adipsin increased epidermal closure from about 15% to about 30%, and increased keratinocytes migration from about 30% to about 65%, as compared with the buffer control (FIG. 6).
Full thickness 20 mm incision wounds were performed on 8-10 week old C57BL mice, 6 mice per group. The wounds were treated daily for 7 days with PBS (control), adiponectin (1 μg/ml) or visfatin (0.01 μg/ml). Skin biopsies were paraffin embedded and slide sections representing the widest area of the wound were prepared. Sections were then subjected to histochemical staining such as H&E and Masson Trichrome (collagen). […]

primary skin fibroblasts = experiment: Fibroblasts scratch migration assay in vitro; type: cell-based; conditions: 24 hrs; hIL-8 5 ng/ml, hIL-1β 0.2 ng/ml, hIL-4 2 ng/ml, apelin 0.2 μg/ml, adiponectin 1 μg/ml
Method: Primary skin fibroblasts were isolated and plated on 5 ml non-coated dishes until confluence in low Ca^2+ medium, and an artificial crossover scratch was formed in each dish with a 200 μm tip. Cells were either non-treated (control) or treated with insulin (0.1 unit/ml), hIL-8 (5 ng/ml), hIL-1β (0.2 ng/ml), hIL-4 (2 ng/ml), apelin (0.2 μg/ml) or adiponectin (1 μg/ml); and collected after 24 hrs.
as §1

[2] = hIL-6 0.2 ng/ml, leptin 4 μg/ml, apelin 0.02 μg/ml
[3] = C57BL mice, insulin 1 μM topical daily for six days, untreated about 60%

## O=C(Nc1ccccc1)c1cc([N+](=O)[O-])ccc1Cl [GW9662, 2-chloro-5-nitrobenzanilide, reference compound]
Primary keratinocytes; scratch with 200 μm tip, Day 2 (48 hours), GW9662 2 μM, troglitazone 100 μM
  keratinocytes migration in vitro vs untreated control: promoted keratinocytes migration
[1]
  epidermal migration vs PBS control (K14 staining): promoted; also recorded: migrating toward covering the wound gap
  wound contraction vs PBS control: promoted wound contraction
  dermal contraction (both dermal wound sides in a single field, H&E): positive dermal contraction
  wound area compared with the buffer control (morphological analysis): substantially smaller

## IL-1: adipokine hIL-1β
Primary skin fibroblasts
  fibroblasts migration to close the wound gap vs non-treated and insulin: promoted fibroblasts migration to completely close the wound gap

## IL-6: adipokine hIL-6
Primary keratinocytes; [2]
  keratinocyte migration in scratch assay vs control and insulin: not as significantly

## IL-8: adipokine hIL-8
Primary skin fibroblasts
  fibroblasts migration to close the wound gap vs non-treated and insulin: smaller yet significant effect

## adipsin
Primary keratinocytes; no concentration given
  keratinocytes migration in vitro (summary statement): substantially accelerated keratinocytes migration in vitro
[1]; adipsin 1 μM topical daily, buffer control about 15%
  epidermal closure, percent of wounds positive (K14): about 30%
[1]; adipsin 1 μM topical daily, buffer control about 30%
  keratinocytes migration, percent of wounds positive (K14): about 65%
[1]
  epidermal migration vs PBS control (K14 staining): migrating toward covering the wound gap
  wound contraction vs PBS control: substantially promoted wound contraction
  dermal contraction (both dermal wound sides in a single field, H&E): positive dermal contraction
  wound area compared with the buffer control (morphological analysis): substantially smaller

## apelin
Primary skin fibroblasts
  fibroblasts migration to close the wound gap vs non-treated and insulin: promoted fibroblasts migration to completely close the wound gap
Primary keratinocytes; hIL-4 2 ng/ml, apelin 0.2 μg/ml
  keratinocyte migration in scratch assay vs control and insulin: keratinocyte migration was highly significant
Primary keratinocytes; [2]
  keratinocyte migration in scratch assay vs control and insulin: not as significantly

## insulin [reference compound]
[1]; [3]
  migrating keratinocytes observed across the wound gap, percent of wounds (K14 staining): about 90%
  recruited adipocytes present, percent of wounds (H&E staining): ~80%
[1]
  wound area compared with the buffer control (morphological analysis): substantially smaller

## leptin
Primary keratinocytes; [2]
  keratinocyte migration in scratch assay vs control and insulin: not as significantly
